{
  "source": "patent US20260248832A1",
  "about": "“COMPOSITION COMPRISING CYTIDINE ANALOGS AND USES AND METHODS THEREOF” (UNIVERSITÄT HEIDELBERG, priority 2022, published 2026)",
  "format_in_all_cases": "physicochemical",
  "key": {"[1]": {"assay": "Stability of decitabine in aqueous media (HPLC)", "details": "DMSO stock mixed 1:2 with 20 mM ammonium acetate pH 6.8; room temperature (about 25° C.); up to 14 days", "method": "(§1) Chem Res Toxicol 2009; 22 (6): 1194-204.\n(§2) • 1. […] Immediate Injection • 3. […] Chem Res Toxicol 2009; 22 (6): 1194-204.\nTo test the stability of β-decitabine in an aqueous medium, two stock solutions of β-decitabine in DMSO were prepared and mixed 1:2 with the HPLC mobile phase (20 mM ammonium acetate pH 6.8). The samples were stored at room temperature (about 25° C.) and their content of β-decitabine, which is considered to represent the active anomer of decitabine, was measured for up to 14 days."}, "[2]": {"assay": "Long-term stability of decitabine in DMSO (HPLC)", "details": "3 mM stock in DMSO; room temperature and 2-8° C.; almost three months", "method": "as §1, §2\nA 3 mM stock solution of decitabine in DMSO was prepared and one aliquot each was stored at room temperature and at 2-8° C. Its β-decitabine concentration was determined by HPLC for almost three months."}, "[3]": {"assay": "Solubility of decitabine in different non-aqueous media", "details": "DMSO", "method": "Due to the unsuitability of aqueous media, different non-aqueous media were tested with regard to the solubility of decitabine in the non-aqueous media. As decitabine is a nucleoside, several polar, water-free solvents, that would be well suited for further formulation experiments, were selected to determine the solubility of decitabine. […] Therefore, the DMSO stock was chosen as the next candidate for stability and formulation testing."}},
  "data": [
    {"compound": "Nc1ncn([C@H]2C[C@H](O)[C@@H](CO)O2)c(=O)n1", "note": "[decitabine, 5-aza-2′-deoxycytidine]", "values": [
      {"measurement": "stability of β-decitabine in aqueous medium", "setting": "[1]", "result": "observed instability"},
      {"measurement": "change in β-decitabine concentration in DMSO", "setting": "[2]", "result": "almost no change"},
      {"measurement": "solubility", "setting": "[3]; organic solvent or mixture", "result": "~46", "unit": "mg/mL"},
      {"measurement": "solubility of decitabine for relevant dosage strengths", "setting": "[3]; four tested solvents: glycerol, PEG 300, absolute ethanol", "result": "only DMSO showed sufficient solubility"}
    ]}
  ]
}
